“And” between values parts separate entries of the source, which are not always exact repeats. Equal entries are not always repeated. Where two headings read alike, the source gives them in different places. Marks after values point to notes of the source that are not given here.
What was measured:
[1] = system: hCMEC/D3 mono-culture BBB model; assay: TEER of hCMEC/D3 mono-culture BBB model; type: cell-based, Homo sapiens; settings: hCMEC/D3 mono-culture, 200 pg/ml GDNF, day 6; 3 μM SPP-86 or 5 μM PP2
[2] = system: triple co-culture BBB model (hCMEC/D3, U251 and SH-SY5Y cells); assay: TEER of triple co-culture BBB model; type: cell-based, Homo sapiens; settings: for TEER: Triple+PP2, single replicates, Figure 2S
Experimental: The establishment process of the triple co-culture model is illustrated in Figure 9. SH-SY5Y cells were seeded at a density of 4.5 × 10^4 cells/cm^2 in plates and differentiated with 10 μM retinoic acid (Sigma-Aldrich, St. Louis, MO, USA) for 72 hr. The differentiated SH-SY5Y cells were cultured in the fresh DMEM/F12 medium containing 10% FBS. U251 cells were seeded at 2 × 10^4 cells/cm^2 on the bottom of Transwell inserts (PET, 0.4 µm pore size, SPL Life Sciences, Pocheon, Korea) coated with rat-tail collagen (Corning Inc, Corning, NY, USA). Next, the inserts were suspended in plate wells containing the culture medium after 5 hr of incubation. After 24 hr of incubation, hCMEC/D3 cells were seeded on the apical side of the inserts at 3 × 10^4 cells/cm^2 and cultured for another 48 hr. Then, the inserts seeded with U251 and hCMEC/D3 cells were suspended in plates seeded with differentiated SH-SY5Y cells and co-cultured for another 6 days. The culture medium was replaced every 24 hr. TEER was periodically measured using a Millicell-ERS (MERS00002) instrument (Millipore, Billerica MA, USA) to monitor cell confluence and development of TJs.

[3] = system: claudin-5; assay: Western blot of claudin-5 expression in hCMEC/D3 cells; type: cell-based, Homo sapiens; settings: for GDNF-induced claudin-5 expression: 200 pg/ml GDNF, 3 μM SPP-86, 5 μM PP2, 3 μM LY294002, 2 μM U0126, 5 μM SP600125, 2 μM SB203580; for Claudin-5/β-actin Relative Expression, Mean / Claudin-5/β-actin Relative Expression: Figure 2G; for Claudin-5/β-actin Relative Expression, Mean: Con = 1.000; for Claudin-5/β-actin Relative Expression: relative to Con, single replicates
Experimental: (§1) Whole-cell and tissue lysates, nucleoprotein, and cytoplasmic protein were prepared using RIPA Lysis Buffer (Beyotime, Shanghai, China) as the described method ([Wu et al., 2021]). Proteins were separated through sodium dodecyl sulfate–polyacrylamide gel electrophoresis and transferred onto nitrocellulose or polyvinylidene difluoride membranes. The membranes were blocked with 5% skim milk and incubated with corresponding primary antibodies at 4°C overnight. After being washed with Tris-buffered saline Tween buffer, the membranes were incubated with secondary antibodies (Cell Signaling Technology, MA, USA) at 1:3000 dilution: Anti-mouse IgG, HRP-linked Antibody (#7076), Anti-rabbit IgG, HRP-linked Antibody (#7074). Protein levels were visualized using a highly sensitive ECL western blotting substrate and a gel imaging system (Tanon Science & Technology, Shanghai, China).
(§2) CM of U251 cells (U-CM), SH-SY5Y cells (S-CM), or co-culture of U251 and SH-SY5Y cells (US-CM) was prepared. U251 cells were seeded at the top of the insert membrane and suspended on 6-well plates seeded with differentiated SH-SY5Y cells to co-culture U251 cells with SH-SY5Y cells. The medium was collected every 24 hr. The CMs were subsequently used for hCMEC/D3 cell culture after filtrating with 0.2 μm filters for 144 hr. The levels of GDNF, bFGF, IGF-1, and TGF-β in CMs were measured using corresponding ELISA kits according to the manufacturers’ instructions.
(§3) Exogenous and endogenous GDNF in the medium was neutralized with anti-GDNF antibody (#AF-212-NA, R&D system, Minneapolis, MN, USA). 0.25, 0.5, and 1.0 μg/ml anti-GDNF antibody was added into the US-CM or medium containing 200 pg/ml GDNF, and then the medium was preincubated at 4°C for 1 hr. The hCMEC/D3 cells were incubated with 200 pg/ml GDNF or US-CM containing anti-GDNF antibody or not for 6 days, and then cell lysate was collected for western blot. The medium was replaced every 24 hr.
(§4) Here, hCMEC/D3 cells were plated in the plates or culture dishes at 6 × 10^4 cells/cm^2 and transfected with 10 nM of negative control or human FOXO1, ETS1, and CDH5 siRNA (Tsingke Biotechnology, Beijing, China) for 12 hr using Lipofectamine 3000 (Invitrogen, Carlsbad, CA, USA) reagent according to the manufacturer’s instructions. Cells were then incubated with a medium containing GDNF for 72 hr.
The plasmids encoding FOXO1 (EX-Z7404-M02) were constructed by GeneCopoeia (Rockville, MD, USA). The hCMEC/D3 cells were plated in plates or dishes at 6 × 10^4 cells/cm^2. They were subsequently transfected with 1 µg of negative control or plasmids encoding FOXO1 6 hr using Lipofectamine 3000 reagent according to the manufacturer’s instructions. Transfected cells were then incubated with the medium containing GDNF for 72 hr.

[4] = system: VE-cadherin; assay: Western blot of VE-cadherin expression in hCMEC/D3 cells; type: cell-based, Homo sapiens; settings: for GDNF-induced VE-cadherin expression: 200 pg/ml GDNF, 3 μM SPP-86, 5 μM PP2, 3 μM LY294002, 2 μM U0126, 5 μM SP600125, 2 μM SB203580; for VE-cadherin/β-actin Relative Expression, Mean / VE-cadherin/β-actin Relative Expression: Figure 2G; for VE-cadherin/β-actin Relative Expression, Mean: Con = 1.000; for VE-cadherin/β-actin Relative Expression: relative to Con, single replicates
Experimental: as §1, §2, §3, §4

[5] = system: triple co-culture BBB model (hCMEC/D3, U251 and SH-SY5Y cells); assay: In vitro BBB permeability study (Papp), triple co-culture BBB model
[6] = system: hCMEC/D3 mono-culture BBB model; assay: In vitro BBB permeability study (Papp), hCMEC/D3 mono-culture BBB model
[7] = in vitro; settings: human, Papp (individual replicate)
[8] = in situ brain perfusion in rodents, published permeability multiplied by VSA 150 cm^2/g, cited from earlier work
[9] = unbound fraction in brain; ref Esaki et al., 2019; cited from earlier work
[10] = In vitro BBB permeability study (Papp), triple co-culture BBB model; settings: human
[11] = In vitro BBB permeability study (Papp), hCMEC/D3 mono-culture BBB model; settings: human
[12] = hCMEC/D3 cells, anti-GDNF antibody 0.25, 0.5, 1.0 μg/ml
[13] = hCMEC/D3 cells, US-CM, 3 μM SPP-86, 5 μM PP2, 3 μM LY294002, 2 μM U0126, anti-GDNF antibody 0.25, 0.5, 1.0 μg/ml

Compound: CC(C)(C)n1nc(-c2ccc(Cl)cc2)c2c(N)ncnc21 [PP2]
- GDNF-increased TEER values, effect of inhibitor [1]: almost abolished
- TEER ([2]; Day3): 61.05 Ω·cm2 and 61.38 Ω·cm2 and 59.07 Ω·cm2 and 63.36 Ω·cm2
- TEER ([2]; Day4): 66.66 Ω·cm2 and 65.01 Ω·cm2 and 64.68 Ω·cm2 and 62.04 Ω·cm2
- TEER ([2]; Day5): 81.51 Ω·cm2 and 78.21 Ω·cm2 and 77.88 Ω·cm2 and 76.89 Ω·cm2
- TEER ([2]; Day6): 78.21 Ω·cm2 and 80.19 Ω·cm2 and 76.23 Ω·cm2 and 79.2 Ω·cm2
- increased TEER values in the triple co-culture BBB model, effect of inhibitor ([2]; day 6, 3 μM SPP-86 or 5 μM PP2): completely reversed
- GDNF-induced claudin-5 expression [3, 12]: markedly attenuated
- US-CM-induced claudin-5 expression [3, 13]: markedly attenuated
- GDNF-induced VE-cadherin expression [4, 12]: markedly attenuated
- US-CM-induced VE-cadherin expression [4, 13]: markedly attenuated
- decreased permeability of fluorescein and FITC-Dex in the triple co-culture BBB model, effect of inhibitor ([5]; 3 μM SPP-86 or 5 μM PP2): completely reversed
- GDNF-decreased permeability of fluorescein and FITC-Dex, effect of inhibitor ([6]; hCMEC/D3 mono-culture, 200 pg/ml GDNF, 3 μM SPP-86 or 5 μM PP2): almost abolished

Compound: COc1cc2nc(N3CCN(C(=O)c4ccco4)CC3)nc(N)c2cc1OC [Prazosin]
- Papp A→B at 30 min [7]: 4.56 ×10⁻⁶ cm/s
- PSObs ([8]; ref Di Marco et al., 2019): 169.20^¶ ¶ μl/min/g

Compound: Cc1nc2n(c(=O)c1CCN1CCC(c3noc4cc(F)ccc34)CC1)CCCC2 [Risperidone]
- PSObs ([8]; ref Summerfield et al., 2007): 849.60^† μl/min/g

Compound: C[S+]([O-])c1ccc(-c2nc(-c3ccncc3)c(-c3ccc(F)cc3)[nH]2)cc1 (stereo not drawn) [SB203580, reference compound]
- GDNF-induced claudin-5 expression [3, 12]: almost no effect
- GDNF-induced VE-cadherin expression [4, 12]: almost no effect

Compound: Oc1c2ccccc2c2c3c(cccc13)N=N2 [SP600125, reference compound]
- GDNF-induced claudin-5 expression [3, 12]: almost no effect
- GDNF-induced VE-cadherin expression [4, 12]: almost no effect

Compound: COc1ccc(C(CN(C)C)C2(O)CCCCC2)cc1 (stereo not drawn) [Venlafaxine]
- fu, brain [9]: 0.205^*
- Papp A→B at 30 min ([10]; Papp (individual replicate), Triple co-culture BBB model, single replicate values (4 per drug)): 7.48 ×10⁻⁶ cm/s
- Papp A→B at 30 min ([10]; Papp, Triple, apical to basolateral, 30 min, 37°C, day 6, mean ± SEM, four biological replicates): 8.25 ± 0.36 ×10⁻⁶ cm/s
- PS ([5]; Triple co-culture BBB model, PS worked out from mean Papp): 362.02 µL/min/g
- Papp A→B ([5]; read-out: Papp (individual replicate), Triple co-culture BBB model, single replicate values (4 per drug)): 8.5 ×10⁻⁶ cm/s and 9.29 ×10⁻⁶ cm/s and 7.72 ×10⁻⁶ cm/s
- Papp A→B at 30 min ([11]; Papp (individual replicate), Mono-culture BBB Model, single replicate values (4 per drug)): 10.3 ×10⁻⁶ cm/s
- Papp A→B at 30 min ([11]; Papp, Mono, apical to basolateral, 30 min, 37°C, day 6, mean ± SEM, four biological replicates): 9.58 ± 0.28 ×10⁻⁶ cm/s
- PS ([6]; Mono-culture BBB Model, PS worked out from mean Papp): 420.60 µL/min/g
- PSPre, Mono ([6]; PSPre = Papp×60×VSA×1000/fu,brain, VSA 150 cm^2/g, from Papp, Mono): 420.60 µL/min/g
- Papp A→B ([6]; read-out: Papp (individual replicate), Mono-culture BBB Model, single replicate values (4 per drug)): 8.74 ×10⁻⁶ cm/s and 9.52 ×10⁻⁶ cm/s and 9.75 ×10⁻⁶ cm/s

Compound: TGF-β
- Claudin-5/β-actin Relative Expression, Mean ([3]; 0.5 ng): 0.967
- Claudin-5/β-actin Relative Expression ([3]; 0.5 ng): 0.910 and 1.017 and 1.003 and 0.937
- Claudin-5/β-actin Relative Expression, Mean ([3]; 2 ng): 0.982
- Claudin-5/β-actin Relative Expression ([3]; 2 ng): 0.870 and 1.019 and 1.090 and 0.947
- Claudin-5/β-actin Relative Expression, Mean ([3]; 5 ng): 0.716
- Claudin-5/β-actin Relative Expression ([3]; 5 ng): 0.653 and 0.618 and 0.959 and 0.634
- claudin-5 expression ([3]; hCMEC/D3 cells, high level (5 ng/ml) of TGF-β): slightly downregulated
- VE-cadherin/β-actin Relative Expression, Mean ([4]; 0.5 ng): 1.041
- VE-cadherin/β-actin Relative Expression ([4]; 0.5 ng): 1.060 and 0.953 and 1.005 and 1.147
- VE-cadherin/β-actin Relative Expression, Mean ([4]; 2 ng): 1.010
- VE-cadherin/β-actin Relative Expression ([4]; 2 ng): 0.849 and 1.087 and 1.125 and 0.979
- VE-cadherin/β-actin Relative Expression, Mean ([4]; 5 ng): 0.834
- VE-cadherin/β-actin Relative Expression ([4]; 5 ng): 0.847 and 0.832 and 0.952 and 0.705

From paper PMC11524583, “Neurons enhance blood–brain barrier function via upregulating claudin-5 and VE-cadherin expression due to glial cell line-derived neurotrophic factor secretion” (eLife, 2024)
